Measured values as given in US5439905A, “Thienodiazepine compounds and their use” (Yoshitomi Pharmaceutical Industries, Ltd., priority 1993, dated 1995).
Read-outs that look alike come from different tables or passages of the source.

What was measured:
[1] = target: T1, CCK receptor (pancreas) (Canis lupus familiaris, UniProt Q5D0K2); assay: CCK receptor-binding, pancreas (inhibition of 125I-CCK-8 binding); set-up: species or system male mongrel adult dog
T1 construct: the suspension was used as a receptor source; from tissue; host or cells: dog pancreas membranes
T1 sequence (Q5D0K2 1-428): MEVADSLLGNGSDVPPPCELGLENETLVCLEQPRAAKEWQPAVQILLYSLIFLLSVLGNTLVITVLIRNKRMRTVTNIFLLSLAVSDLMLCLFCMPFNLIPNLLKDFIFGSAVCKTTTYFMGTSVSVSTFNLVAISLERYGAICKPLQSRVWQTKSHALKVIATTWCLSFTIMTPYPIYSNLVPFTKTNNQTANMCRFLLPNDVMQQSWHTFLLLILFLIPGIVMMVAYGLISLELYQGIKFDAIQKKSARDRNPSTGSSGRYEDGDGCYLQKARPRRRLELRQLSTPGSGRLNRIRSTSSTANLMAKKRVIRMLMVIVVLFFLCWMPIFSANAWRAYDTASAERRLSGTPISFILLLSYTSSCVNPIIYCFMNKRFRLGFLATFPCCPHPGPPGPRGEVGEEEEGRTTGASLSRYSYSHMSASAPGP
Experimental: The entire pancreas of a male mongrel adult dog was extracted and the fat tissues thereof were removed. The residual portion was homogenized in 50 mM Tris hydrochloride (pH 7.5) (Blinkman.cndot.Polytron PT20). After the filtration with nylon cloth (120 mesh) and subsequent centrifugation (50,000×g, 12 minutes), the obtained sediment was homogenized in a Tris buffer solution in the same manner as mentioned above and the homogenate was centrifuged. The obtained sediment was suspended in a buffer solution for binding assay (5 mM magnesium chloride, 5 mM dithiothreitol, 2 mg/ml bovine serum albumin, 0.1 mg/ml bacitracin, and 50 mM Tris hydrochloride, pH 7.2) containing 0.14 mg/ml trypsin-inhibitor (soy bean), and the suspension was used as a receptor source.

[2] = target: T2, CCK receptor (brain); assay: CCK receptor-binding, brain (inhibition of 125I-CCK-8 binding)
T2 construct: brain; from tissue

[3] = dog pancreas membranes, 125I-CCK-8, 20° C., 30 minutes, pH 7.2, read-out: CCK binding, IC50, pancreas

T2 sequence (P32239 whole entry): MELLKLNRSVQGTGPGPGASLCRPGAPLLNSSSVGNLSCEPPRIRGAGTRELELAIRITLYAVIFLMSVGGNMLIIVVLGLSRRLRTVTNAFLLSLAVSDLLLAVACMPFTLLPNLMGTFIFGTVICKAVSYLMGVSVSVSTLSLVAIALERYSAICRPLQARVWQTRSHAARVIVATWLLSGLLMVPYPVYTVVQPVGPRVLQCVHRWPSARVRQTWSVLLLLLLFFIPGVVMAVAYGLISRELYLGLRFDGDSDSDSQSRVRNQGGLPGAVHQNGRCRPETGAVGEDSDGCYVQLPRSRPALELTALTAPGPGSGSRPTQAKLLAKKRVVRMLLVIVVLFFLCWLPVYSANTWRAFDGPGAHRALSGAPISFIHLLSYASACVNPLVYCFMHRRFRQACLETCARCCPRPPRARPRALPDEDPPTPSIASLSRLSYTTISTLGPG

Row | Molecule | IC50 [1] [µM] | IC50 [2] [µM] | IC50 [1, 3] [µM]
1 | CCc1cc2c(s1)-n1c(C)nnc1C(NC(=O)Nc1cccc(C)c1)N=C2c1ccccc1Cl (stereo not drawn) [Compound B, 4-(2-chlorophenyl)-2-ethyl-9-methyl-6-(3-(3-methylphenyl)ureido)-6H-thieno[3,2-f][1,2,4]-triazolo[4,3-a][1,4]diazepine] | 0.0012 | 0.01 | –
2 | CCK-8: CCK-8 which consists of 8 amino acids at the C terminus (of cholecystokinin); control compound [reference compound] | – | – | 0.0004
3 | CCK-4 [reference compound] | – | – | 0.8
4 | CCc1cc2c(s1)N(C)C(=O)C(NC(=O)Nc1cccc(C)c1)N=C2c1ccccc1Cl (stereo not drawn) [Compound A, 4-(2-chlorophenyl)-2-ethyl-8-methyl-6-(3-(3-methylphenyl)ureido)-8H-6,7-dihydro-thieno[3,2-f]-[1,4]diazepin-7-one] | 0.011 | 0.031 | –
